Results from patent US20200055897A1, “MODIFIED PEPTOIDS” (Technion Research & Development Foundation Limited, priority 2017, published 2020).
Starred links: 1 amine or outer side, 2 acyl side, 3 side chain; linkers in the order of their positions; H or OH if unused. Non-standard residues stand in square brackets, D forms with d. Residues, ends and D or L forms follow the SMILES beside them. *: point of attachment. N(1S-cyclohexylethyl)Gly = C[C@H](NCC(=O)O)C1CCCCC1; Gly(N-CH2CH2C6H4-4Cl) = O=C(O)CNCCc1ccc(Cl)cc1; NMeGly(N-(2-F-benzyl)) = CN(CC(=O)*)Cc1ccccc1F; Acetyl(2-(piperazin-1-yl)) = O=C(CN1CCNCC1)*; Hydrazinoacetyl = O=C(CNN[*:1])[*:2]; Gly(Nα-NHCO2Et) = CCOC(=O)NNCC(=O)O; Nrpe = C[C@@H](NCC(=O)O)c1ccccc1; Nspe = C[C@H](NCC(=O)O)c1ccccc1; X1 = O=C(CN1CCN([*:1])CC1)[*:2]; Ethoxycarbonyl = CCOC(=O)*; Nphe = O=C(O)CNCc1ccccc1; X5 = NC(=O)CN1CCN(*)CC1; X3 = O=C(CN1CCCNCC1)*

Test: General method for water solubility test (gradual addition of water to 1 mg peptoid until clear)
Format: physicochemical
Method: 1 mg peptoid was placed in an Eppendorf container and water was added gradually (e.g., […] per addition) until a clear solution was obtained. The solubility test was repeated three times and average values are presented. The limit of the test was typically 2.0×10^2 mg/liter (i.e., 1 mg per 5 ml).
Water solubility tests were carried out by a gradual addition of 5 μl distilled water to 1 mg peptoid until a clear solution was obtained. This assay was repeated three times and results were averaged.

solubility	Water solubility relative to that of P2	SMILES
< 200 µg/mL		C[C@H](NCC(=O)N(CC(=O)N(CC(=O)N(CC(=O)N1CCN(CC(N)=O)CC1)[C@@H](C)c1cccc2ccccc12)[C@@H](C)c1cccc2ccccc12)[C@@H](C)c1cccc2ccccc12)c1cccc2ccccc12 [Peptoid P13, Npz-(Ns1npe)4]
7520 µg/mL		C[C@@H](C1CCCCC1)N(CC(N)=O)C(=O)CN(C(=O)CN(C(=O)CN(C(=O)CN(C(=O)CN1CCN(C(=O)CN2CCNCC2)CC1)[C@@H](C)C1CCCCC1)[C@@H](C)C1CCCCC1)[C@@H](C)C1CCCCC1)[C@@H](C)C1CCCCC1 [Peptoid P19, (Nsch)5-(Npz)2] ({Acetyl(2-(piperazin-1-yl))}-[X1][N(1S-cyclohexylethyl)Gly][N(1S-cyclohexylethyl)Gly][N(1S-cyclohexylethyl)Gly][N(1S-cyclohexylethyl)Gly][N(1S-cyclohexylethyl)Gly]-NH2)
~700 µM		C[C@@H](c1ccccc1)N1CC(=O)N(CC(N)=O)CCCN2CCN(CC2)CC(=O)N([C@@H](C)c2ccccc2)CC(=O)N([C@@H](C)c2ccccc2)CC(=O)N([C@@H](C)c2ccccc2)CC(=O)N([C@@H](C)c2ccccc2)CC(=O)N([C@@H](C)c2ccccc2)CC1=O [Peptoid P4, Npl-(Nspe)6-Npz (cyclic)]
< 200 µg/mL		C[C@@H](C1CCCCC1)N(CC(N)=O)C(=O)CN(C(=O)CN(C(=O)CN(C(=O)CN(C(=O)CN1CCCNCC1)[C@@H](C)C1CCCCC1)[C@@H](C)C1CCCCC1)[C@@H](C)C1CCCCC1)[C@@H](C)C1CCCCC1 [Peptoid P16, (Nsch)5-Nhpz]
< 200 µg/mL		C[C@H](NCC(=O)N(CC(=O)N(CC(=O)N(CC(=O)N(CC(N)=O)[C@@H](C)C1CCCCC1)[C@@H](C)C1CCCCC1)[C@@H](C)C1CCCCC1)[C@@H](C)C1CCCCC1)C1CCCCC1 [Peptoid P10, (Nsch)5, reference compound]
< 200 µg/mL		C[C@H](NCC(=O)N(CC(=O)N(CC(=O)N(CC(=O)N(CC(=O)N(CC(N)=O)[C@@H](C)c1ccccc1)[C@@H](C)c1ccccc1)[C@@H](C)c1ccccc1)[C@@H](C)c1ccccc1)[C@@H](C)c1ccccc1)c1ccccc1 [Peptoid P1, (Nspe)6, reference compound] (H-[Nspe][Nspe][Nspe][Nspe][Nspe][Nspe]-NH2)
< 200 µg/mL		C[C@@H](c1cccc2ccccc12)N(CC(N)=O)C(=O)CN(C(=O)CN(C(=O)CN(C(=O)CN1CCCNCC1)[C@@H](C)c1cccc2ccccc12)[C@@H](C)c1cccc2ccccc12)[C@@H](C)c1cccc2ccccc12 [Peptoid P14, (Ns1npe)4-Nhpz]
< 200 µg/mL		C[C@@H](c1cccc2ccccc12)N(CC(N)=O)C(=O)CN(C(=O)CN(C(=O)CN(C(=O)CN1CCNCC1)[C@@H](C)c1cccc2ccccc12)[C@@H](C)c1cccc2ccccc12)[C@@H](C)c1cccc2ccccc12 [Peptoid P12, (Ns1npe)4-Npz]
< 200 µg/mL		C[C@H](NCC(=O)N(CC(=O)N(CC(=O)N(CC(N)=O)[C@@H](C)c1cccc2ccccc12)[C@@H](C)c1cccc2ccccc12)[C@@H](C)c1cccc2ccccc12)c1cccc2ccccc12 [Peptoid P9, (Ns1npe)4, reference compound]
< 200 µg/mL		CCOC(=O)NNCC(=O)N(CC(=O)N(CC(=O)N(CC(=O)N(CC(=O)N(CC(N)=O)[C@H](C)c1ccccc1)NC(=O)OCC)[C@H](C)c1ccccc1)NC(=O)OCC)[C@H](C)c1ccccc1 [Peptoid P28, reference compound] (Ethoxycarbonyl-[Hydrazinoacetyl][Nrpe][Gly(Nα-NHCO2Et)][Nrpe][Gly(Nα-NHCO2Et)][Nrpe]-NH2)
< 200 µg/mL		C[C@@H](C1CCCCC1)N(CC(N)=O)C(=O)CN(C(=O)CN(C(=O)CN(C(=O)CN(C(=O)CN1CCNCC1)[C@@H](C)C1CCCCC1)[C@@H](C)C1CCCCC1)[C@@H](C)C1CCCCC1)[C@@H](C)C1CCCCC1 [Peptoid P15, (Nsch)5-Npz]
< 200 µg/mL		C[C@H](c1ccccc1)N(CCC(N)=O)C(=O)CCN(C(=O)CCN(C(=O)CCN(C(=O)CCN(C(=O)CCN(C(=O)CN1CCNCC1)[C@H](C)c1ccccc1)[C@H](C)c1ccccc1)[C@H](C)c1ccccc1)[C@H](C)c1ccccc1)[C@H](C)c1ccccc1 [Peptoid P25]
84400 µg/mL		C[C@@H](C1CCCCC1)N(CC(=O)N(CCc1ccc(Cl)cc1)CC(=O)N(CC(=O)N(CC(=O)N(CC(=O)N1CCN(CC(=O)N2CCN(CC(N)=O)CC2)CC1)Cc1ccccc1)Cc1ccccc1)[C@@H](C)C1CCCCC1)C(=O)CN(C)Cc1ccccc1F [Peptoid P20, (Npz)2-(Npm)2-Nsch-Ncpe-Nsch-Nfpm] ({NMeGly(N-(2-F-benzyl))}-[N(1S-cyclohexylethyl)Gly][Gly(N-CH2CH2C6H4-4Cl)][N(1S-cyclohexylethyl)Gly][Nphe][Nphe][X1]-X5)
< 200 µg/mL		C[C@@H](C1CCCCC1)N(CC(=O)N(CCc1ccc(Cl)cc1)CC(=O)N(CC(=O)N(CC(=O)N(CC(N)=O)Cc1ccccc1)Cc1ccccc1)[C@@H](C)C1CCCCC1)C(=O)CN(C)Cc1ccccc1F [Peptoid P11, (Npm)2-Nsch-Ncpe-Nsch-Nfpm, reference compound] ({NMeGly(N-(2-F-benzyl))}-[N(1S-cyclohexylethyl)Gly][Gly(N-CH2CH2C6H4-4Cl)][N(1S-cyclohexylethyl)Gly][Nphe][Nphe]-NH2)
49600 µg/mL	about 50 times	C[C@@H](c1ccccc1)N(CC(N)=O)C(=O)CN(C(=O)CN(C(=O)CN(C(=O)CN(C(=O)CN(C(=O)CN1CCCNCC1)[C@@H](C)c1ccccc1)[C@@H](C)c1ccccc1)[C@@H](C)c1ccccc1)[C@@H](C)c1ccccc1)[C@@H](C)c1ccccc1 [Peptoid P7, (Nspe)6-Nhpz] (X3-[Nspe][Nspe][Nspe][Nspe][Nspe][Nspe]-NH2)
~900 µM		C[C@H](NCC(=O)N(CC(=O)N(CC(=O)N(CC(=O)N(CC(=O)N(CC(=O)N1CCN(CC(N)=O)CC1)[C@@H](C)c1ccccc1)[C@@H](C)c1ccccc1)[C@@H](C)c1ccccc1)[C@@H](C)c1ccccc1)[C@@H](C)c1ccccc1)c1ccccc1 [Peptoid P3, Npz-(Nspe)6] (H-[Nspe][Nspe][Nspe][Nspe][Nspe][Nspe]-X5)
73500 µg/mL		C[C@@H](C1CCCCC1)N(CC(N)=O)C(=O)CN(C(=O)CN(C(=O)CN(C(=O)CN(C(=O)CN1CCN(C(=O)CN2CCN(C(=O)CN3CCNCC3)CC2)CC1)[C@@H](C)C1CCCCC1)[C@@H](C)C1CCCCC1)[C@@H](C)C1CCCCC1)[C@@H](C)C1CCCCC1 [Peptoid P22, (Nsch)5-(Npz)3] ({Acetyl(2-(piperazin-1-yl))}-[X1][X1][N(1S-cyclohexylethyl)Gly][N(1S-cyclohexylethyl)Gly][N(1S-cyclohexylethyl)Gly][N(1S-cyclohexylethyl)Gly][N(1S-cyclohexylethyl)Gly]-NH2)
< 200 µg/mL		C[C@H](c1ccccc1)N(CCC(N)=O)C(=O)CCN(C(=O)CCN(C(=O)CCN(C(=O)CCN(C(=O)CCN[C@H](C)c1ccccc1)[C@H](C)c1ccccc1)[C@H](C)c1ccccc1)[C@H](C)c1ccccc1)[C@H](C)c1ccccc1 [Peptoid P24, reference compound]
103000 µg/mL		C[C@H](c1ccccc1)N(CCC(N)=O)C(=O)CCN(C(=O)CCN(C(=O)CCN(C(=O)CCN(C(=O)CCN(C(=O)CN1CCN(C(=O)CN2CCNCC2)CC1)[C@H](C)c1ccccc1)[C@H](C)c1ccccc1)[C@H](C)c1ccccc1)[C@H](C)c1ccccc1)[C@H](C)c1ccccc1 [Peptoid P26]
